We go through twelve molecules from US20240270741A1 (Cogent Biosciences, Inc., priority 2023, published 2024).

The IC50 is the concentration needed to halve the response being measured. Read a low IC50 as inhibition by little substance.

SMILES strings stand for the structures.

The first assay deals with FGFR2 (Homo sapiens, UniProt P21802). Kind of assay: FGFR wild type enzyme assay (HTRF KinEASE-TK), FGFR2. The settings on record: Enz FGFR2 (nM). A general note: Time-resolved FRET reads energy transfer from a long-lived donor to a nearby acceptor.
FGFR2, sequence (P21802 399-821 limits assumed): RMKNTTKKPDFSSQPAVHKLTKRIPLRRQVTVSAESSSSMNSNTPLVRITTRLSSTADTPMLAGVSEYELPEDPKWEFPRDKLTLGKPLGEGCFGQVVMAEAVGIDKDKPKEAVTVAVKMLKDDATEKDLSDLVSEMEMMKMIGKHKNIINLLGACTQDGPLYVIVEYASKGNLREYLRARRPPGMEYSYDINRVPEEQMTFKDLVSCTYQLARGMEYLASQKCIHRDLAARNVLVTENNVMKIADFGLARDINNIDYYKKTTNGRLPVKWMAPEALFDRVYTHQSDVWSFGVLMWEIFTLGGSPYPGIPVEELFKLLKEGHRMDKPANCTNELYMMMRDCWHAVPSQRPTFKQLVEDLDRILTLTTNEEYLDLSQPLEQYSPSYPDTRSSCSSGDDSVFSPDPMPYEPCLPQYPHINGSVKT
Procedure: Activity against FGFR wild type and mutant enzymes were determined in biochemical assays using purified intracellular domains of the respective isoforms using HTRF KinEASE-TK assay technology from CisBio, now PerkinElmer. (Catalogue number 62TK0PEC). Briefly test compounds were tested in 11 point 1:3 serial dilutions, typical final concentration ranges from 10,000 nM to 0.17 nM. Test compounds were dissolved in DMSO and added to assay plates using acoustic transfer. Enzyme was pre-incubated with test compound for 30 minutes and the assay was initiated by addition of ATP and TK-peptide substrate. After 60 minutes at room temperature the reaction was quenched with detection reagent and incubated for an additional 60 minutes at room temperature. The plates were read using a multimode reader and the emission ratio of 665 nm to 615 nm was determined. This ratio was converted to percent of control (POC). [1-(high control-sample signal)/(high control-low control)]*100. Wells without compound were used to determine high control values and wells without enzyme were used to determine low control values. The POC values were fit using a four-parameter logistic model and the value where the fit curve was equal to 50 POC was reported as the IC50 using the Signals Vitro Vivo software package (PerkinElmer). Final assay conditions were: 50 mM HEPES pH7.5, 10 mM MgCl2, 1 mM EDTA, 0.01% Brij-35, 2 mM MnCl2, 1 mM DTT, and 0.5 uM TK-peptide.
`Cc1ccnc(C)c1Sc1cc(-c2cnn([C@H]3CCCNC3)c2)cn2ncc(C#N)c12` [Example 84, 4-[(2,4-dimethyl-3-pyridyl)sulfanyl]-6-[1-[(3S)-3-piperidyl]pyrazol-4-yl]pyrazolo[1,5-a]pyridine-3-carbonitrile] returned a concentration for half-maximal inhibition (IC50) of 11 nM. This counts as double-digit nanomolar.

The molecule `COCCSc1cc(-c2cnn([C@H]3CCCNC3)c2)cn2ncc(C#N)c12` [Example 53, 4-(2-methoxyethylsulfanyl)-6-[1-[(3S)-3-piperidyl]pyrazol-4-yl]pyrazolo[1,5-a]pyridine-3-carbonitrile] yielded an IC50 of 3 nM.

Still in this assay, the particulars now being: Enz FGFR2 (nM), FGFR2 wild type enzyme.
In the case of `Cc1c(-c2cc(Sc3ncccc3F)c3c(C#N)cnn3c2)cnn1[C@H]1CC[C@@H](N(C)CCO)CC1` [Example 241, 4-((3-fluoropyridin-2-yl)thio)-6-(1-((1s,4s)-4-((2-hydroxyethyl)(methyl)ami-no)cyclohexyl)-5-methyl-1H-pyrazol-4-yl)pyrazolo[1,5-a]pyridine-3-carbonitrile], the concentration for half-maximal inhibition (IC50) turned out to be 1 nM.

The molecule `Cc1c(-c2cc(Sc3ccccc3C#N)c3c(C#N)cnn3c2)cnn1C1CCN(C[C@@H](C)O)CC1` [Example 141, (R)-4-((2-cyanophenyl)thio)-6-(1-(1-(2-hydroxypropyl)piperidin-4-yl)-5-methyl-1H-pyrazol-4-yl)pyrazolo[1,5-a]pyridine-3-carbonitrile] registered a half-maximal inhibitory concentration (IC50) of 1 nM.

`Cc1c(-c2cc(Sc3ncc(F)cc3F)c3c(C#N)cnn3c2)cnn1[C@H]1CCCN(C(=O)CO)C1` [Example 229, (S)-4-((3,5-difluoropyridin-2-yl)thio)-6-(1-(1-(2-hydroxyacetyl)piperidin-3-yl)-5-methyl-1H-pyrazol-4-yl)pyrazolo[1,5-a]pyridine-3-carbonitrile] registered a half-inhibitory concentration (IC50) of 3 nM. This IC50 is about 3-fold higher than that of the molecule before.

In turn, `COCCN1CCC(n2ncc(-c3cc(Sc4ccccc4C#N)c4c(C#N)cnn4c3)c2C)CC1` [Example 139, 4-((2-cyanophenyl)thio)-6-(1-(1-(2-methoxyethyl)piperidin-4-yl)-5-methyl-1H-pyrazol-4-yl)pyrazolo[1,5-a]pyridine-3-carbonitrile] registered a half-inhibitory concentration (IC50) of 1 nM.

`Cc1c(-c2cc(Sc3ccccc3C#N)c3c(C#N)cnn3c2)cnn1[C@H]1CC[C@@](C)(N)CC1` [Example 297, 6-[1-(4-amino-4-methyl-cyclohexyl)-5-methyl-pyrazol-4-yl]-4-(2-cyanophenyl) sulfanylpyrazolo[1,5-a]pyridine-3-carbonitrile]: the half-inhibitory concentration (IC50) amounted to 0.3 nM.

The molecule `Cc1c(-c2cc(Sc3ncccc3F)c3c(C#N)cnn3c2)cnn1C1CCNC(C)C1` (stereo not drawn) [Example 252, 4-((3-fluoropyridin-2-yl)thio)-6-(5-methyl-1-(2-methylpiperidin-4-yl)-1H-pyrazol-4-yl)pyrazolo[1,5-a]pyridine-3-carbonitrile] registered an IC50 of 1 nM. Compared with the last molecule, the IC50 is about 3.3-fold higher.

The assay is the same for the next values; noted with them: Enz FGFR2 (nM), FGFR2 wild type enzyme assay.
`C[C@@H]1CN(c2ccc(-c3cc(Sc4ccccc4C#N)c4c(C#N)cnn4c3)cn2)C[C@H](C)O1` [Example 665, 4-((2-cyanophenyl)thio)-6-(6-((2S,6R)-2,6-dimethylmorpholino)pyridin-3-yl)pyrazolo[1,5-a]pyridine-3-carbonitrile] came in with a half-maximal inhibitory concentration (IC50) of 1 nM.

In turn, `CN[C@H]1CC[C@H](n2ncc(-c3cc(Sc4ccccn4)c4c(C#N)cnn4c3)c2C)CC1` [Example 347, 6-(5-methyl-1-((1r,4r)-4-(methylamino)cyclohexyl)-1H-pyrazol-4-yl)-4-(pyridin-2-ylthio)pyrazolo[1,5-a]pyridine-3-carbonitrile] came in with an IC50 of 2.5 nM.

In the case of `Cc1nc(Sc2cc(-c3cnn([C@H]4CCCNC4)c3)cn3ncc(C#N)c23)c(F)cc1F` [Example 631, (S)-4-((3,5-difluoro-6-methylpyridin-2-yl)thio)-6-(1-(piperidin-3-yl)-1H-pyrazol-4-yl)pyrazolo[1,5-a]pyridine-3-carbonitrile], the IC50 turned out to be 1 nM.

The molecule `Cn1cc(-c2cc(Sc3ccc(F)cc3C#N)c3c(C#N)cnn3c2)cn1` [Example 558, 4-((2-cyano-4-fluorophenyl)thio)-6-(1-methyl-1H-pyrazol-4-yl)pyrazolo[1,5-a]pyridine-3-carbonitrile] yielded a 50% inhibitory concentration (IC50) of 2 nM. This IC50 lies about 2-fold higher than the previous one.
